Data reported in patent US4330542A, “N(Sulfonyl)anilines for treating angina pectoris” (Sanofi, priority 1979, dated 1982).

Columns and labels:
[1] = system: α-system; test: Inhibitory effect on the α-system: reduction of epinephrine-increased blood-pressure in the atropinized dog; type: in vivo; details: anaesthetized atropinized dog, 10 mg/kg intravenous
Description: (§1) A dose of epinephrine, sufficient to produce a stable increase in blood-pressure was administered to a dog anaesthetized with sodium pentobarbital which had previously received an intravenous injection of 1 mg/kg of atropine sulphate. The operation was repeated several times and the blood-pressure obtained was noted. When the latter had returned to its normal level, the animal was given an intravenous dose of 10 mg/kg of the compound to be tested followed by the same dose as above of epinephrine.

[2] = Heart-rate in anaesthetized atropinized dogs after intravenous injection; type: in vivo; details: anaesthetized atropinized dog, 10 mg/kg intravenous
Description: (§2) The pharmacological investigation was carried out on anaesthetized dogs (30 mg/kg I.V. of sodium pentobarbital) having previously received an intravenous dose of 1 mg/kg of atropine sulphate.
(§3) The substance to be tested was given by an intravenous injection lasting two minutes after which the behaviour of both heart-rate and blood-pressure was observed over a certain period of time. An investigation was then carried out to detect any antiadrenergic properties. The compound listed hereunder were tested, in most cases in the form of pharmaceutically acceptable acid addition salts: […]

[3] = Blood-pressure in anaesthetized atropinized dogs after intravenous injection; type: in vivo; details: anaesthetized atropinized dog, 10 mg/kg intravenous
Description: as §2, §3

[4] = system: β-system; test: Antiadrenergic effect on the β-system: reduction of isoprenaline-increased heart-rate in the dog; type: in vivo; details: anaesthetized atropinized dog, same method as epinephrine test (10 mg/kg intravenous)
Description: as §1
The antiadrenergic effects of the compounds of the invention on the β-system were also studied, by determining the degree to which they reduced isoprenaline-increased heart-rate. The same method as above was used.

[5] = system: α-system; test: Inhibitory effect on the α-system: reduction of epinephrine-increased blood-pressure in the atropinized dog; type: in vivo; details: anaesthetized atropinized dog, dose as low as 2 mg/kg
[6] = Acute toxicity in the rat, intravenous route; details: in vivo
Description: Acute toxicity tests were also carried out on the rat, by intravenous route.

## CC(=O)Nc1ccc(N(CC(O)CN2CCN(c3ccccc3)CC2)S(=O)(=O)c2ccc(C)cc2)cc1 (centres unmarked) [Compound 91, 4-Acetylamino-N-[2-hydroxy-3-(4-phenyl-1-piperazinyl)-propyl]-N-(4-methyl-benzenesulphonyl)-aniline]
[1]
  reduction of epinephrine-induced arterial hypertension: reduced, at least partially, the epinephrine-induced arterial hypertension
[2]
  reduction in heart-rate: marked and long-lasting reduction in heart-rate
[3]
  reduction in blood-pressure: marked and constant reduction in blood-pressure

## COc1ccc(S(=O)(=O)N(CC(O)CN2CCN(c3ccc(Cl)cc3)CC2)c2ccc(Cl)c(Cl)c2)cc1 (centres unmarked) [Compound 84, 3,4-Dichloro-N-[3-(4-(4-chloro-phenyl)-1-piperazinyl)-2-hydroxy-propyl]-N-(4-methoxy-benzenesulphonyl)-aniline]
[1]
  reduction of epinephrine-induced arterial hypertension: reduced, at least partially, the epinephrine-induced arterial hypertension
[2]
  reduction in heart-rate: marked and long-lasting reduction in heart-rate

## CC(=O)Nc1ccc(N(CC(O)CN2CCN(c3ccccc3)CC2)S(C)(=O)=O)cc1 (centres unmarked) [Compound 88, 4-Acetylamino-N-[2-hydroxy-3-(4-phenyl-1-piperazinyl)-propyl]-N-methylsulphonyl-aniline]
[1]
  reduction of epinephrine-induced arterial hypertension: reduced, at least partially, the epinephrine-induced arterial hypertension
[4]
  reduction in isoprenaline-increased heart-rate: marked reduction in the isoprenaline-increased heart-rate
[3]
  reduction in blood-pressure: marked and constant reduction in blood-pressure

## CS(=O)(=O)N(CC(O)CN1CCN(c2ccccc2Cl)CC1)c1ccc(Cl)c(Cl)c1 (centres unmarked) [Compound 75, 3,4-Dichloro-N-[3-(4-(2-chloro-phenyl)-1-piperazinyl)-2-hydroxy-propyl]-N-methylsulphonyl-aniline]
[1]
  reduction of epinephrine-induced arterial hypertension: reduced, at least partially, the epinephrine-induced arterial hypertension
[3]
  reduction in blood-pressure: marked and constant reduction in blood-pressure

## N-[3-(4-(4-chlorophenyl)-1-piperazinyl)-2-hydroxy-propyl]-N-methylsulphonyl-4-amino-phenylacetamide [Compound 99]
[1]
  reduction of epinephrine-induced arterial hypertension: reduced, at least partially, the epinephrine-induced arterial hypertension

## C=CCOc1ccccc1N(CC(O)CN1CCN(c2ccccn2)CC1)S(=O)(=O)c1ccc(OC)cc1 (centres unmarked) [Compound 53, 2-Allyloxy-N-[2-hydroxy-3-(4-(2-pyridyl)-1-piperazinyl)-propyl]-N-(4-methoxy-benzenesulphonyl)-aniline]
[1]
  reduction of epinephrine-induced arterial hypertension: reduced, at least partially, the epinephrine-induced arterial hypertension
[3]
  reduction in blood-pressure: marked and constant reduction in blood-pressure

## C=CCOc1ccccc1N(CC(O)CNC(C)(C)C)S(=O)(=O)c1ccc(OC)cc1 (centres unmarked) [Compound 14, 2-Allyloxy-N-(3-tert-butylamino-2 hydroxy-propyl)-N-(4-methoxy-benzenesulphonyl)-aniline]
[1]
  reduction of epinephrine-induced arterial hypertension: reduced, at least partially, the epinephrine-induced arterial hypertension
[2]
  reduction in heart-rate: marked and long-lasting reduction in heart-rate
[4]
  reduction in isoprenaline-increased heart-rate: marked reduction in the isoprenaline-increased heart-rate

## C=CCOc1ccccc1N(CC(O)CN1CCN(c2ccccc2F)CC1)S(=O)(=O)c1ccc(OC)cc1 (centres unmarked) [Compound 57, 2-Allyloxy-N-[2-hydroxy-3-(4-(2-fluoro-phenyl)-1-piperazinyl)-propyl]-N-(4-methoxy-benzenesulphonyl)-aniline]
[1]
  reduction of epinephrine-induced arterial hypertension: reduced, at least partially, the epinephrine-induced arterial hypertension
[2]
  reduction in heart-rate: marked and long-lasting reduction in heart-rate

## CC(=O)Nc1ccc(N(CC(O)CN2CCN(c3ccccc3Cl)CC2)S(=O)(=O)c2ccc(C)cc2)cc1 (centres unmarked) [Compound 95, 4-Acetylamino-N-[3-(4-(2-chloro-phenyl)-1-piperazinyl)-2-hydroxy-propyl]-N-(4-methyl-benzenesulphonyl)-aniline]
[3]
  reduction in blood-pressure: marked and constant reduction in blood-pressure

## COc1ccccc1N1CCN(CC(O)CN(c2ccc(CC(N)=O)cc2)S(=O)(=O)c2ccc(C)cc2)CC1 (centres unmarked) [Compound 105, N-[2-hydroxy-3-(4-(2-methoxy-phenyl)-1-piperazino)-propyl]-N-(4-methyl-benzenesulphonyl)-4-amino-phenylacetamide]
[1]
  reduction of epinephrine-induced arterial hypertension: reduced, at least partially, the epinephrine-induced arterial hypertension
[3]
  reduction in blood-pressure: marked and constant reduction in blood-pressure

## N-[2-hydroxy-3-(4-(2-methoxy-phenyl)-1-piperazinyl)-propyl]-N-methylsulphonyl-4-amino-phenylacetamide [Compound 102]
[1]
  reduction of epinephrine-induced arterial hypertension: reduced, at least partially, the epinephrine-induced arterial hypertension
[5]
  reduction of epinephrine-induced arterial hypertension at low dose: Long-lasting and total reduction
[2]
  reduction in heart-rate: marked and long-lasting reduction in heart-rate
[3]
  reduction in blood-pressure: marked and constant reduction in blood-pressure

## COc1ccccc1N1CCN(CC(O)CN(c2ccc(Cl)c(Cl)c2)S(C)(=O)=O)CC1 (centres unmarked) [Compound 77, 3,4-Dichloro-N-[2-hydroxy-3-(4-(2-methoxy-phenyl)-1-piperazinyl)-propyl]-N-methylsulphonyl-aniline]
[1]
  reduction of epinephrine-induced arterial hypertension: reduced, at least partially, the epinephrine-induced arterial hypertension
[2]
  reduction in heart-rate: marked and long-lasting reduction in heart-rate
[3]
  reduction in blood-pressure: marked and constant reduction in blood-pressure

## C=CCOc1ccccc1N(CC(O)CN1CCN(c2ccc(F)cc2)CC1)S(C)(=O)=O (centres unmarked) [Compound 23, 2-Allyloxy-N-[3-(4-(4-fluoro-phenyl)-1-piperazinyl)-2-hydroxy-propyl]-N-methylsulphonyl-aniline]
[1]
  reduction of epinephrine-induced arterial hypertension: reduced, at least partially, the epinephrine-induced arterial hypertension
[3]
  reduction in blood-pressure: marked and constant reduction in blood-pressure

## C=CCOc1ccccc1N(CC(O)CN1CCN(Cc2ccccc2)CC1)S(=O)(=O)c1ccc(C)cc1 (centres unmarked) [Compound 40, 2-Allyloxy-N-[3-(4-benzyl-1-piperazinyl)-2-hydroxy-propyl]-N-(4-methylbenzene-sulphonyl)-aniline]
[6]
  LD50: 12 mg/kg
[1]
  reduction of epinephrine-induced arterial hypertension: reduced, at least partially, the epinephrine-induced arterial hypertension
[2]
  reduction in heart-rate: marked and long-lasting reduction in heart-rate
[4]
  reduction in isoprenaline-increased heart-rate: marked reduction in the isoprenaline-increased heart-rate
[3]
  reduction in blood-pressure: marked and constant reduction in blood-pressure

## COc1ccccc1N1CCN(CC(O)CN(c2ccc(NC(C)=O)cc2)S(C)(=O)=O)CC1 (centres unmarked) [Compound 90, 4-Acetylamino-N-[2-hydroxy-3-(4-(2-methoxy-phenyl)1-piperazinyl)-2-hydroxy-propyl]-N-methyl-sulphonyl-aniline]
[1]
  reduction of epinephrine-induced arterial hypertension: reduced, at least partially, the epinephrine-induced arterial hypertension
[3]
  reduction in blood-pressure: marked and constant reduction in blood-pressure

## COc1ccccc1N1CCN(CC(O)CN(c2ccc(NC(C)=O)cc2)S(=O)(=O)c2ccc(C)cc2)CC1 (centres unmarked) [Compound 94, 4-Acetylamino-N-[2-hydroxy-3-(4-(2-methoxy-phenyl)-1-piperazinyl)-propyl]-N-(4-methyl-benzenesulphonyl)-aniline]
[1]
  reduction of epinephrine-induced arterial hypertension: reduced, at least partially, the epinephrine-induced arterial hypertension
[2]
  reduction in heart-rate: marked and long-lasting reduction in heart-rate
[3]
  reduction in blood-pressure: marked and constant reduction in blood-pressure

## C=CCOc1ccccc1N(CC(O)CN1CCN(c2ccccc2OC)CC1)S(C)(=O)=O (centres unmarked) [Compound 30, 2-Allyloxy-N-[2-hydroxy-3-(4-(2-methoxy-phenyl)-1-piperazinyl)-propyl]-N-methylsulphonyl-aniline]
[1]
  reduction of epinephrine-induced arterial hypertension: reduced, at least partially, the epinephrine-induced arterial hypertension
[5]
  reduction of epinephrine-induced arterial hypertension at low dose: Long-lasting and total reduction
[4]
  reduction in isoprenaline-increased heart-rate: marked reduction in the isoprenaline-increased heart-rate
[3]
  reduction in blood-pressure: marked and constant reduction in blood-pressure
